The record followed here is article PMC11133327, “Discovery of potent antimycobacterial agents targeting lumazine synthase (RibH) of Mycobacterium tuberculosis” (Scientific Reports, 2024).

What all share (type): binding
Assay [1] concerns the target T1, lumazine synthase (RibH) (Mycobacterium tuberculosis, UniProt P9WHE9). Description: […]; also riboflavin displacement ([…] at […]).
Assay [2] addresses T1, lumazine synthase (RibH). Description: biochemical.
Assay [3] concerns the target T1, lumazine synthase (RibH). The experiment in a line: […]; also riboflavin displacement ([…] at […]). This is another data set of the same source.
Assay [4] addresses T1, lumazine synthase (RibH). Description: […]; also riboflavin displacement ([…] at […]). This is another data set of the same source.

T1 sequence (P9WHE9 whole entry): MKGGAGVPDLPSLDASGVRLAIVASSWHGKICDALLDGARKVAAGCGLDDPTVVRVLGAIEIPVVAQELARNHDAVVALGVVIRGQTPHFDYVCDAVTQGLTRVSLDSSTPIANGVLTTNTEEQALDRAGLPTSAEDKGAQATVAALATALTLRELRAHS

Regarding `O=C1NC(=Nc2ccccc2)SC1=Cc1ccc([N+](=O)[O-])o1` [A10, 5-((5-nitrofuran-2-yl)methylene)-2-(phenylimino)thiazolidin-4-one], the Kd on lumazine synthase (RibH) [1] is 69 nM. That is a double-digit nanomolar value.

On to `Cc1cc2nc3c(=O)[nH]c(=O)nc-3n(C[C@H](O)[C@H](O)[C@H](O)CO)c2cc1C` [riboflavin], for which, at lumazine synthase (RibH) [2], binding was characterised by a dissociation constant (Kd) of 86 nM.

For `Cc1ccc(N=C2NC(=O)C(=Cc3ccc([N+](=O)[O-])o3)S2)cc1` [A52, 5-((5-nitrofuran-2-yl)methylene)-2-(p-tolylimino)thiazolidin-4-one], the Kd at lumazine synthase (RibH) [3] is 48 nM.

As to `O=C1NC(=Nc2ccc(Cl)cc2)SC1=Cc1ccc([N+](=O)[O-])o1` [A39, 2-((4-chlorophenyl)imino)-5-((5-nitrofuran-2-yl)methylene)thiazolidin-4-one], on lumazine synthase (RibH) [4], binding was put at a Kd of 2.3 nM.

One may read the Kd as a measure of binding affinity in units of concentration.
